A word on the Ki: it is the equilibrium dissociation constant of an inhibitor or competing ligand from its target.

In US8481576B2 (Abbott GmbH & Co. KG, priority 2004, dated 2013) one finds Ki data, which are given here for 45 molecules.

SMILES strings stand for the structures. Some results are limits rather than exact numbers.

For this experiment, the target named is T1, h5-HT5A receptor (Homo sapiens, UniProt P47898).
T1 construct: expressed in transfected cells; host or cells: HEK293
T1 sequence (P47898 whole entry): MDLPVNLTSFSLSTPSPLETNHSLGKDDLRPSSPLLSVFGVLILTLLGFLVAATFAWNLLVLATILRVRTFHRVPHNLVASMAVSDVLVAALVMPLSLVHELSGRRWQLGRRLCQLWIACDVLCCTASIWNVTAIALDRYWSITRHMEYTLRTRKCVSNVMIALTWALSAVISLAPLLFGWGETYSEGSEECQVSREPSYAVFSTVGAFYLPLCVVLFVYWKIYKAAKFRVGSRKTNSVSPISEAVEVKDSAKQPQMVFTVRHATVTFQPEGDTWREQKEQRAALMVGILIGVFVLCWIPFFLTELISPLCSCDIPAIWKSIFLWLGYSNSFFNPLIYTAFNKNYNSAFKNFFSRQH
Briefly: [3H]5-CT binding assay h5-HT5A. The note with it: membranes from HEK293 cells expressing h5-HT5A, 2.5 nM [3H]5-CT; read-out: Binding affinity 5-HT5A (Ki). Put shortly:
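Membranes from HEK293 cells stably expressing h5-HT5A incubated with 2.5 nM [3H]5-CT and compound in 100 mM Tris-HCl pH 7.7, 1 mM EDTA, 75 min at 30° C. Nonspecific binding with 10 μM methiothepine; filtration and scintillation counting give Ki or IC50.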
For `COc1cccc(OC)c1CNC(=N)Nc1nc(C)c(C)o1` [Example 174, N-(2,6-dimethoxybenzyl)-N′-(4,5-dimethyl-1,3-oxazole-2-yl)guanidine acetate], the Ki is less than 50 nM.
In the case of `COc1ccccc1CNC(=N)Nc1nnc(-c2ccccc2)s1` [Example 175, N-(2-methoxybenzyl)-N′-(5-phenyl-1,3,4-thiadiazole-2-yl)guanidine acetate] it was greater than 500 nM.
Regarding `COc1cccc(OC)c1CNC(=N)Nc1nnc(-c2ccccc2)s1` [Example 176, N-(2,6-dimethoxybenzyl)-N′-(5-phenyl-1,3,4-thiadiazole-2-yl)guanidine], the Ki lay within 50 to 500 nM.
In the case of `COc1cccc(OC)c1CNC(=N)Nc1ncc[nH]1` [Example 177, N-(2,6-dimethoxybenzyl)-N′-1H-imidazole-2-ylguanidine acetate] it was less than 50 nM; in that of `COc1ccccc1CNC(=N)Nc1nnc(C)s1` [Example 178, N-(2-methoxybenzyl)-N′-(5-methyl-1,3,4-thiadiazole-2-yl)guanidine], 50 to 500 nM; in that of `COc1ccccc1CNC(=N)Nc1n[nH]c2ccccc12` [Example 179, N-1H-indazole-3-yl-N′-(2-methoxybenzyl)guanidine acetate], less than 50 nM.
Regarding `COc1cccc(OC)c1CNC(=N)Nc1n[nH]c2ccccc12` [Example 180, N-(2,6-dimethoxybenzyl)-N′-1H-indazole-3-ylguanidine acetate], the Ki is less than 50 nM.
For `COc1cccc(OC)c1CNC(=N)Nc1nnc(C)[nH]1` [Example 181, N-(2,6-dimethoxybenzyl)-N′-(5-methyl-4H-1,2,4-triazole-3-yl)guanidine], the Ki was less than 50 nM.
To `COc1cccc(OC)c1CNC(=N)Nc1nc2ccccc2[nH]1` [Example 182, N-1H-benzimidazole-2-yl-N′-(2,6-dimethoxybenzyl)guanidine diacetate] belongs less than 50 nM; to `COc1ccccc1CNC(=N)Nc1ncc[nH]1` [Example 183, N-1H-imidazole-2-yl-N′-(2-methoxybenzyl)guanidine acetate], 50 to 500 nM.
In the case of `COc1ccccc1CNC(=N)Nc1nnc[nH]1` [Example 184, N-(2-methoxybenzyl)-N′-4H-1,2,4-triazole-3-ylguanidine acetate] it was greater than 500 nM; in that of `COc1ccccc1CNC(=N)Nc1nnc(C)[nH]1` [Example 185, N-(2-methoxybenzyl)-N′-(5-methyl-4H-1,2,4-triazole-3-yl)guanidine acetate], greater than 500 nM; in that of `COc1ccccc1CNC(=N)Nc1nc(-c2ccc(F)cc2)c[nH]1` [Example 186, N-[4-(4-fluorophenyl)-1H-imidazole-2-yl]-N′-(2-methoxybenzyl)guanidine], less than 50 nM.
With `COc1cccc(OC)c1CNC(=N)Nc1nc(-c2ccccc2)c[nH]1` [Example 187, N-(2,6-dimethoxybenzyl)-N′-(4-phenyl-1H-imidazole-2-yl)guanidine acetate], the inhibition constant Ki is less than 50 nM.
To `COc1ccccc1CNC(=N)Nc1nc(-c2ccccc2)c[nH]1` [Example 188, N-(2-methoxybenzyl)-N′-(4-phenyl-1H-imidazole-2-yl)guanidine acetate] belongs less than 50 nM; to `COc1cccc(OC)c1CNC(=N)Nc1nnc[nH]1` [Example 189, N-(2,6-Dimethoxybenzyl)-N′-4H-1,2,4-triazole-3-ylguanidine acetate], less than 50 nM; to `COc1cccc(OC)c1CNC(=N)Nc1nc(C)co1` [Example 190, N-(2,6-dimethoxybenzyl)-N′-(4-methyl-1,3-oxazole-2-yl)guanidine acetate], less than 50 nM.
In the case of `COc1cccc(OC)c1CNC(=N)Nc1nc(-c2ccc(F)cc2)c[nH]1` [Example 191, N-(2,6-dimethoxybenzyl)-N′-[4-(4-fluorophenyl)-1H-imidazole-2-yl]guanidine acetate] it was less than 50 nM; in that of `CCOC(=O)c1csc(NC(=N)NCc2c(OC)cccc2OC)n1` [Example 192, Ethyl 2-{[[(2,6-dimethoxybenzyl)amino](imino)methyl]amino}-1,3-thiazole-4-carboxylate acetate], less than 50 nM.
Regarding `C=CCNC(=O)c1csc(NC(=N)NCc2c(OC)cccc2OC)n1` [Example 193, N-allyl-2-{[[(2,6-dimethoxybenzyl)amino](imino)methyl]amino}-1,3-thiazole-4-carboxamide], the Ki is less than 50 nM.
On to `COc1cccc(OC)c1CNC(=N)Nc1nc(C(=O)NCc2ccccc2)cs1` [Example 194, N-benzyl-2-{[[(2,6-dimethoxybenzyl)amino](imino)methyl]amino}-1,3-thiazole-4-carboxamide], for which the Ki was less than 50 nM.
For the molecule `COc1cccc(Cl)c1CNC(=N)Nc1nc(-c2ccc(F)cc2)c[nH]1` [Example 195, N-(2-chlor-6-methoxybenzyl)-N′-[4-(4-fluorphenyl)-1H-imidazole-2-yl]guanidine acetate], the Ki is less than 50 nM.
`COc1cccc(OC)c1CNC(=N)Nc1nc(C(=O)NC(C)C)cs1` [Example 196, 2-{[[(2,6-dimethoxybenzyl)amino](imino)methyl]amino}-N-isopropyl-1,3-thiazole-4-carboxamide]: the Ki was less than 50 nM.
In the case of `COc1ccccc1CNC(=N)Nc1nc(-c2ccccc2)co1` [Example 197, N-(2-methoxybenzyl)-N′-(4-phenyl-1,3-oxazole-2-yl)guanidine] it was 50 to 500 nM; in that of `COc1ccccc1CNC(=N)Nc1nc(-c2ccc(F)cc2)co1` [Example 198, N-[4-(4-fluorophenyl)-1,3-oxazole-2-yl]-N′-(2-methoxybenzyl)guanidine], less than 50 nM; in that of `COc1cccc(OC)c1CNC(=N)Nc1nc(-c2ccccc2)co1` [Example 199, N-(2,6-dimethoxybenzyl)-N′-(4-phenyl-1,3-oxazole-2-yl)guanidine], less than 50 nM.
Turning to `COc1ccccc1CNC(=N)Nc1cc(C(C)(C)C)[nH]n1` [Example 200, N-(5-tert-butyl-1H-pyrazole-3-yl)-N′-(2-methoxy-benzyl)-guanidine], the Ki is 50 to 500 nM.
Take `COc1ccccc1CNC(=N)Nc1cc(-c2ccccc2)[nH]n1` [Example 201, N-(2-methoxybenzyl)-N′-(5-phenyl-1H-pyrazole-3-yl)guanidine]: the Ki was less than 50 nM.
In the case of `COc1cccc(OC)c1CNC(=N)Nc1cc(-c2ccccc2)[nH]n1` [Example 202, N-(2,6-dimethoxybenzyl)-N′-(5-phenyl-1H-pyrazole-3-yl)guanidine] it was less than 50 nM.
Take `COc1cccc(OC)c1CNC(=N)Nc1cc[nH]n1` [Example 203, N-(2,6-dimethoxybenzyl)-N′-1H-pyrazole-3-ylguanidine]: the Ki was less than 50 nM.
As for `COc1cccc(OC)c1CNC(=N)Nc1cc(C(C)(C)C)[nH]n1` [Example 204, N-(5-tert-butyl-1H-pyrazole-3-yl)-N′-(2,6-dimethoxybenzyl)guanidine], the Ki is less than 50 nM.
In the case of `COc1ccccc1CNC(=N)Nc1cc[nH]n1` [Example 205, N-(2-methoxybenzyl)-N′-1H-pyrazole-3-ylguanidine] it was 50 to 500 nM.
In the case of `COc1ccccc1CNC(=N)Nc1cc(-c2ccc(C)cc2)[nH]n1` [Example 206, N-(2-methoxybenzyl)-N′-[5-(4-methylphenyl)-1H-pyrazole-3-yl]guanidine], the Ki is less than 50 nM.
With `COc1cccc(OC)c1CNC(=N)Nc1cc(-c2ccc(C)cc2)[nH]n1` [Example 207, N-(2,6-dimethoxybenzyl)-N′-[5-(4-methylphenyl)-1H-pyrazole-3-yl]guanidine], the Ki was less than 50 nM.
Regarding `COc1ccc(-c2cc(NC(=N)NCc3ccccc3OC)n[nH]2)cc1` [Example 208, N-(2-methoxybenzyl)-N′-[5-(4-methoxyphenyl)-1H-pyrazole-3-yl]guanidine], the Ki is less than 50 nM.
With `COc1ccc(-c2cc(NC(=N)NCc3c(OC)cccc3OC)n[nH]2)cc1` [Example 209, N-(2,6-dimethoxybenzyl)-N′-[5-(4-methoxyphenyl)-1H-pyrazole-3-yl]guanidine], the Ki is less than 50 nM.
For the molecule `COc1cccc(F)c1CNC(=N)Nc1cc(C(C)(C)C)[nH]n1` [Example 210, N-(5-tert-butyl-1H-pyrazole-3-yl)-N′-(2-fluoro-6-methoxybenzyl)guanidine], the Ki is less than 50 nM.
In the case of `COc1ccccc1CNC(=N)Nc1cc(-c2ccc(Cl)cc2)[nH]n1` [Example 211, N-[5-(4-chlorophenyl)-1H-pyrazole-3-yl]-N′-(2-methoxybenzyl)guanidine] it was less than 50 nM.
In the case of `COc1cccc(OC)c1CNC(=N)Nc1cc(-c2ccc(Cl)cc2)[nH]n1` [Example 212, N-[5-(4-chlorophenyl)-1H-pyrazole-3-yl]-N′-(2,6-dimethoxybenzyl)guanidine] it was less than 50 nM; in that of `COc1cccc(Cl)c1CNC(=N)Nc1cc(C(C)(C)C)[nH]n1` [Example 213, N-(5-tert-butyl-1H-pyrazole-3-yl)-N′-(2-chloro-6-methoxybenzyl)guanidine], less than 50 nM; in that of `COc1ccccc1CNC(=N)Nc1ccn(C)n1` [Example 214, N-(2-methoxybenzyl)-N′-(1-methyl-1H-pyrazole-3-yl)guanidine], less than 50 nM.
In the case of `COc1cccc(OC)c1CNC(=N)Nc1ccn(C)n1` [Example 215, N-(2,6-dimethoxybenzyl)-N′-(1-methyl-1H-pyrazole-3-yl)guanidine], the Ki was less than 50 nM.
As to `COc1cccc(C)c1CNC(=N)Nc1cc(C(C)(C)C)[nH]n1` [Example 216, N-(5-tert-butyl-1H-pyrazole-3-yl)-N′-(2-methoxy-6-methylbenzyl)guanidine], the inhibitory constant (Ki) was less than 50 nM.
On to `COc1ccccc1CNC(=N)Nc1n[nH]cc1-c1ccccc1` [Example 217, N-(2-methoxybenzyl)-N′-(4-phenyl-1H-pyrazole-3-yl)guanidine], for which the Ki was greater than 500 nM.
To `COc1cccc(OC)c1CNC(=N)Nc1n[nH]cc1-c1ccccc1` [Example 218, N-(2,6-dimethoxybenzyl)-N′-(4-phenyl-1H-pyrazole-3-yl)guanidine] belongs greater than 500 nM.
